Test results as given in patent US20100048543A1, “PYRIMIDINE COMPOUNDS HAVING TIES (TEK) INHIBITORY ACTIVITY” (ASTRAZENECA AB, priority 2005, published 2010).

How the values were obtained:
[1] = biological target: T1, Tie2 receptor (Homo sapiens, UniProt Q02763); assay: Cellular Tie2 autophosphorylation assay, Test (b); format: cell-based; details: Ang1 ligand stimulated whole cells (e.g. EA.hy926/B3), immunoprecipitation/western blot; read-out: IC50 (μM) Test (b): Inhibition of autophosphorylation of Tie2 receptor tyrosine kinase
T1 construct: one can use natural cell lines or primary cells which are known to express the receptor of choice; endogenous in cells; host or cells: EA.hy926/B3 cells (HUVEC named as an alternative)
Source text: b. Cellular Tie2 Autophosphorylation Assay
This assay is based on measuring the ability of compounds to inhibit autophosphorylation of the Tie2 receptor which normally leads to the production of “activated” receptor that in turn initiates the particular signal transduction pathways associated with the receptor function.
Autophosphorylation can be achieved by a number of means. It is known that expression of recombinant kinase domains in baculoviral systems can lead to the production of phosphorylated and activated receptor. It is also reported that over expression of receptors in recombinant cell lines can itself lead to receptor autophosphorylation in the absence of the ligand (Heldin C-H. 1995 Cell: 80, 213-223; Blume-J. P, Hunter T. 2001 Nature: 411, 355-65). Furthermore, there are numerous literature examples in which chimaeric receptors have been constructed. In these cases the natural, external cell surface domain of the receptor has been replaced with that of a domain which is known to be readily dimerised via the addition of the appropriate ligand (e.g. TrkA-Tie2/NGF ligand (Marron, M. B., et al., 2000 Journal of Biological Chemistry: 275:39741-39746) or C-fins-Tie-1/CSF-1 ligand (Kontos, C. D., et al., 2002 Molecular and Cellular Biology: 22, 1704-1713). Thus when the chimaeric receptor expressed in a host cell line and the respective ligand is added, this induces autophosphorylation of the chimeric receptor's kinase domain. This approach has the advantage of often allowing a known (and often easily obtained) ligand to be used instead of having to identify and isolate the natural ligand for each receptor of interest.
Naturally if the ligand is available one can use natural cell lines or primary cells which are known to express the receptor of choice and simply stimulate with ligand to achieve ligand induced phosphorylation. The ability of compounds to inhibit autophosphorylation of the Tie2 receptor, which is expressed for example in EA.hy926/B3 cells (supplied by J. McLean/B. Tuchi, Univ. of N. Carolina at Chapel Hill, CB-4100, 300 Bynum Hall, Chapel Hill, N.C. 27599-41000, USA) or primary HUVEC (human umbilical vein endothelial cells—available from various commercial sources), can measured by this assay.
Natural Ang1 ligand can be isolated using standard purification technology from either tumour cell supernatants or alternatively the Ang1 gene can be cloned and expressed recombinantly using stand molecular biology techniques and expression systems. In this case one can either attempt to produce the ligand either in its native state or as recombinant protein which for example may have been genetically engineered to contain additional of purification tags (eg. polyhistidine peptides, antibody Fc domains) to facilitate the process.
Using the ligand stimulation of either EA.hy926/B3 or HUVEC cellular Tie2 receptor as the example, a Ang1 ligand stimulated cellular receptor phosphorylation assay can be constructed which can be used to analyse to determine the potential of compounds to inhibit this process. For example EA.hy926/B3 cells were grown in the appropriate tissue culture media plus 10% foetal calf serum (FCS) for two days in 6 well plates starting with an initial seeding density of 5×10^5 cells/well. On the third day the cells were serum starved for a total of 2 hours by replacing the previous media with media containing only 1% FCS. After 1 hour 40 minutes of serum starvation the media was removed and replace with 1 ml of the test compound dilutions (compound dilutions made in serum starvation media yet keeping the DMSO concentration below 0.8%). After 1.5 hours of serum starvation orthovanidate was added to a final concentration of 0.1 mM for the final 10 minutes of serum starvation. […]

[2] = biological target: T2, Tie2 receptor tyrosine kinase (Homo sapiens, UniProt Q02763); assay: In vitro receptor tyrosine kinase inhibition assay, Test (a) (ELISA); format: biochemical; details: recombinant human Tie2 kinase domain lysate, ATP 5 micromolar (or Km)
T2 construct: consist of only the intracellular portion C-terminal portion of the respective receptor, within which is found the kinase domain; made in house; host or cells: baculovirus/Sf21 insect cells (or alternative equivalent), used as cleared lysate
Procedure: a. In vitro Receptor Tyrosine Kinase Inhibition Assay
To test for inhibition of Tie2 receptor tyrosine kinase, compounds are evaluated in a non-cell based protein kinase assay by their ability to inhibit the protein kinase enzyme phosphorylation of a tyrosine containing polypeptide substrate in an ELISA based microtitre plate assay. In this particular case, the assay was to determine the IC50, for three different recombinant human tyrosine kinases Tie2, KDR and Flt.
To facilitate production of the tyrosine kinases, recombinant receptor genes were produced using standard molecular biology cloning and mutagenesis techniques. These recombinant proteins fragments encoded within these genes consist of only the intracellular portion C-terminal portion of the respective receptor, within which is found the kinase domain. The recombinant genes encoding the kinase domain containing fragments were cloned and expressed in standard baculovirus/Sf21 system (or alternative equivalent).
Lysates were prepared from the host insect cells following protein expression by treatment with ice-cold lysis buffer (20 mM N-2-hydroxyethylpiperizine-N′-2-ethanesulphonic acid (HEPES) pH7.5, 150 mM NaCl, 10% glycerol, 1% Triton X-100, 1.5 mM MgCl2, 1 mM ethylene glycol-bis (β-aminoethyl ether) N′,N′,N′,N′-tetraacetic acid (EGTA), plus protease inhibitors and then cleared by centrifugation. Tie2, KDR and Flt1 lysates were stored in aliquots at −80° C.
Constitutive kinase activity of these recombinant proteins was determined by their ability to phosphorylate a synthetic peptide (made up of a random co-polymer of Glutamic Acid, Alanine and Tyrosine in the ratio of 6:3:1). Specifically, Nunc Maxisorb™ 96-well immunoplates were coated with 100 microlitres of synthetic peptide Sigma P3899 (1 mg/ml stock solution in PBS diluted 1:500 in PBS prior to plate coating) and incubated at 4° C. overnight. Plates were washed in 50 mM HEPES pH 7.4 at room temperature to remove any excess unbound synthetic peptide.
The immobilised phospho-peptide product of the reaction was detected by immunological methods. Firstly, plates were incubated for 4 hours at room temperature with murine monoclonal anti-phosphotyrosin-HRP (Horseradish Peroxidase) conjugated antibodies (4G10 from Upstate Biotechnology UBI 16-105). Following extensive washing with PBS-T, HRP activity in each well of the plate was measured colorimetrically using 22′-Azino-di-[3-ethylbenzthiazoline sulfonate (6)]diammonium salt crystals ABTS (Sigma P4922—prepared as per manufactures instructions) as a substrate incubated for 30-45 minutes to allow colour development, before 100 ul of 1M H2SO4 was added to stop the reaction.
Quantification of colour development and thus enzyme activity was achieved by the measurement of absorbance at 405 nm on a Molecular Devices ThermoMax microplate reader. Kinase inhibition for a given compound was expressed as an IC50 value. This was determined by calculation of the concentration of compound that was required to give 50% inhibition of phosphorylation in this assay. The range of phosphorylation was calculated from the positive (vehicle plus ATP) and negative (vehicle minus ATP) control values.

T2 sequence (Q02763 770-1124 limits assumed): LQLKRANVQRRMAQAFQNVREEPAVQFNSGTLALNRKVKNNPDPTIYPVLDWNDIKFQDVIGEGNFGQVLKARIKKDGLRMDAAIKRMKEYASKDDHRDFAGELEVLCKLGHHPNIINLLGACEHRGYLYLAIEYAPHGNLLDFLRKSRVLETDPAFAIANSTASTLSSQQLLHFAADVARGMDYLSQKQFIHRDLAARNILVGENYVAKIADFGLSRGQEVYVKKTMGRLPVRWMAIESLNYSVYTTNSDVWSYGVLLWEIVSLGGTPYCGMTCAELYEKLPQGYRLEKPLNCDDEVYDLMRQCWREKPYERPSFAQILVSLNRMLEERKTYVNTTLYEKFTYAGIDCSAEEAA
T1 sequence (Q02763 23-1124): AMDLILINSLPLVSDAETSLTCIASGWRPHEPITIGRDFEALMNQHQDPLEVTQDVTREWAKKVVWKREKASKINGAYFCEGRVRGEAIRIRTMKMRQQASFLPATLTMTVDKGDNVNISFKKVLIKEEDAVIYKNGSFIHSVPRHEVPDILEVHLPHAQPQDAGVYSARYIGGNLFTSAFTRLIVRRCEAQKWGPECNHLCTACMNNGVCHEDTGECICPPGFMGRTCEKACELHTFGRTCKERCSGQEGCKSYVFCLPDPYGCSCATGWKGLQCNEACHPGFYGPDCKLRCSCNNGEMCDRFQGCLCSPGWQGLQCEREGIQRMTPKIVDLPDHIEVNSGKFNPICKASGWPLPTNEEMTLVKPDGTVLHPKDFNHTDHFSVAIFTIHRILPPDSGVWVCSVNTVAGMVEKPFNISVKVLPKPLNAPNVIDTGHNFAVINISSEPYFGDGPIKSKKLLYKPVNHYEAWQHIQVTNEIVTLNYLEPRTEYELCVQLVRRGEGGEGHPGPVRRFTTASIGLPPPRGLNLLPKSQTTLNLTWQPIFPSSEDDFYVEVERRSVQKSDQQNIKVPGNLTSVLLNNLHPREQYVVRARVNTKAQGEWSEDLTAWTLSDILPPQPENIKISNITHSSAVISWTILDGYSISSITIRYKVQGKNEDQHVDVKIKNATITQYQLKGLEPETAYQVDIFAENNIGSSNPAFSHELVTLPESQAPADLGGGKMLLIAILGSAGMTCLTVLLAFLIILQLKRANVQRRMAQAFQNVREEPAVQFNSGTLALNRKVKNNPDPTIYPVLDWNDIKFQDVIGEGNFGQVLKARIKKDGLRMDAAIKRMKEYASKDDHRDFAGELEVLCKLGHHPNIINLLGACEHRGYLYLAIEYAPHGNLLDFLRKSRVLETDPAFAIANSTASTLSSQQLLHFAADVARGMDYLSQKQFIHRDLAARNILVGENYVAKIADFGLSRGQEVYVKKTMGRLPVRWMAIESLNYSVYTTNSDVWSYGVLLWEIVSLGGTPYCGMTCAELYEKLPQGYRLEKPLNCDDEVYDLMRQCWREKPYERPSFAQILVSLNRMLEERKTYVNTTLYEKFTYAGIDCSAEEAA

Row | SMILES | IC50 [1] | IC50 [2]
1 | Cc1ccc(CNC(=O)Nc2cccc(C#Cc3cnc(NCCCN4CCCCC4)nc3)c2)o1 [Example 14, N-[(5-methyl-2-furyl)methyl]-N′-[3-({2-[(3-piperidin-1-ylpropyl)amino]pyrimidin-5-yl}ethynyl)phenyl]urea] | 0.38 µM | 20 µM
2 | Nc1ncc(C#Cc2cccc(NC(=O)NC(CCO)c3ccccc3)c2)cn1 (stereo not drawn) [Example 12, N-{3-[(2-aminopyrimidin-5-yl)ethynyl]phenyl}-N′-(3-hydroxy-1-phenylpropyl)urea] | 1.3 µM | 25 µM
3 | Cc1ccc(CNC(=O)Nc2cccc(C#Cc3cnc(N)nc3)c2)o1 [Example 6, N-{3-[(2-aminopyrimidin-5-yl)ethynyl]phenyl}-N′-[(5-methyl-2-furyl)methyl]urea] | 1.7 µM | 20 µM

The remaining lines, values ahead:

Row | IC50 [1] | IC50 [2] | SMILES
4 | 1.9 µM | 1.5 µM | Nc1ncnc(N)c1C#Cc1cccc(NC(=O)NCC2CCCO2)c1 (stereo not drawn) [Example 47, N-{3-[(4,6-diaminopyrimidin-5-yl)ethynyl]phenyl}-N′-(tetrahydrofuran-2-ylmethyl)urea]
5 | 3.6 µM | 9 µM | Cc1conc1CNC(=O)Nc1cccc(C#Cc2c(N)ncnc2N)c1 [Example 50, N-{3-[(4,6-diaminopyrimidin-5-yl)ethynyl]phenyl}-N′-[(4-methylisoxazol-3-yl)methyl]urea]
6 | 0.2 µM | 3.3 µM | Nc1ncnc(N)c1C#Cc1cccc(NC(=O)NCc2cccnc2)c1 [Example 45, N-{3-[(4,6-diaminopyrimidin-5-yl)ethynyl]phenyl}-N′-(pyridin-3-ylmethyl)urea]
